The test system of assay [1] is tyrosinase. The assay can be described thus: Tyrosinase activity (DOPA oxidase assay) in lysates of B16-F1 cells cultured with free or liposome-included inhibitor. In kind it is cell-based, mouse. Conditions: 24 h after washout following 72 h incubation. On the procedure: B16-F1 mouse melanoma cells (European Collection of Animal Cell Culture, Porton Down, U.K.) were cultured in RPMI 1640 medium (Life Technologies, Paisley, Scotland, and U.K.) as described in ref. [8]. Cells were incubated with liposomes for 72 h at 37° C. and their viability was determined by using the trypan blue staining test. Following the incubation time, cells were harvested, washed three times with PBS and lysed in 10 mM phosphate buffer, pH 6.8 containing 1% Nonidet P40 and proteinase inhibitors.
Tyrosinase activity was measured by the DOPA oxidase assay that measures the conversion of DOPA to DOPAchrome via DOPA quinone. Briefly, 50 μl of cell lysate was mixed with 950 μl of 1 mM DOPA in 0.1 M sodium phosphate buffer, pH 7.2 at 37° C. and the reaction was followed spectrophotometrically at 475 nm by the chromogenic appearance of DOPAchroine from 1 mM DOPA (ref. [8]).
To investigate the uptake of liposome encapsulated NB-DNJ in living cells,.the activity of tyrosinase was monitored, a constitutively expressed enzyme of melanoma cells, highly sensitive to small variations of the NB-DNJ concentration in the culture medium (ref. [8]). Inhibition of N-glycosylation processing in the presence of NB-DNJ yields a tyrosinase polypeptide caring Glc3Man7-9GlcNAc glycans. […]

Assay [2] concerns B16-F1 mouse melanoma cells. The experiment in a line: Pigmentation of melanoma cells, visual inspection. The class given is cell-based. Conditions: 0.5 mM free NB-DNJ, 72 h. The procedure: Cells were treated with for 72 h in the presence and absence of NB-DNJ free or included in liposomes, transferred into a microtiter plate and pelleted by centrifugation.
Tyrosinase is the regulatory enzyme of melanogenesis in melanocytes. Therefore, inactivation of tyrosinase is associated with lack of pigmentation due to the absence of melanin synthesis in specialized cells. To correlate the results on tyrosinase activity, with the melanin content, the pigmentation of the melanoma cells treated With liposomes was observed. […] The lack of pigmentation in melanoma cells treated with minute amounts of liposomal NB-DNJ correlates well with the abolishment of tyrosinase activity as a result of N-glycosylation processing inhibition, reinforcing the efficiency of the cytoplasmic delivery of the drug encapsulated in liposomes.

The test system of assay [3] is tyrosinase. The following applies: B16 mouse melanoma cells, 0.5 mM-5 mM free NB-DNJ (ref. [6]); cited from earlier work.

Structures are written as SMILES.

Consider `CCCCN1C[C@H](O)[C@@H](O)[C@H](O)[C@H]1CO` [NB-DNJ, N-butyldeoxynojirimycin], for which the “recovery of tyrosinase activity” value with tyrosinase [1] amounted to 75%. The pigmentation entry in assay [2] is recorded as “dramatic decrease”. Also, the tyrosinase activity entry in the assay with tyrosinase [3] is recorded as “dramatic decrease”.

The values above are taken from US20030124160A1, “Targeted drug delivery” (priority 2001, published 2003).
